Data from PubChem BioAssay AID1963839 (Molecular Pharmacology Branch, DTP, NCI, 2024).

Test system: 817829-284-R-J1-PDC complex spheroid viability
Assay: Anticancer human tumor 817829-284-R-J1-PDC patient-derived colon adenocarcinoma cell line growth inhibition [POLQ]
Conditions: for IC50: curve of first compound; for viability, T/C: stronger effect = lower value
Procedure, shortened: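 Patient-derived tumour cells were co-cultured with HUVEC and mesenchymal stem cells as multicellular spheroids at 37 °C. They were treated with POLQ inhibitors (novobiocin, ART-558, RP6685) alone or combined with other agents. Top concentrations were at or near clinical Cmax (otherwise 10 microM; SN-38 at 1 microM), decreasing in half-log steps.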

[1] = second compound 0.0316 µM, first compound 0.0316 µM
[2] = second compound 0.0316 µM, first compound 0.1 µM
[3] = second compound 0.0316 µM, first compound 0.316 µM
[4] = second compound 0.0316 µM, first compound 1 µM
[5] = second compound 0.1 µM, first compound 0.0316 µM
[6] = second compound 0.1 µM, first compound 0.1 µM
[7] = second compound 0.1 µM, first compound 0.316 µM
[8] = second compound 0.1 µM, first compound 1 µM
[9] = second compound 0.316 µM, first compound 0.0316 µM
[10] = second compound 0.316 µM, first compound 0.1 µM
[11] = second compound 0.316 µM, first compound 0.316 µM
[12] = second compound 0.316 µM, first compound 1 µM
[13] = second compound 1 µM, first compound 0.0316 µM
[14] = second compound 1 µM, first compound 0.1 µM
[15] = second compound 1 µM, first compound 0.316 µM
[16] = second compound 1 µM, first compound 1 µM
[17] = second compound 3.16 µM, first compound 0.0316 µM
[18] = second compound 3.16 µM, first compound 0.1 µM
[19] = second compound 3.16 µM, first compound 0.316 µM
[20] = second compound 3.16 µM, first compound 1 µM
[21] = second compound 10 µM, first compound 0.0316 µM
[22] = second compound 10 µM, first compound 0.1 µM
[23] = second compound 10 µM, first compound 0.316 µM
[24] = second compound 10 µM, first compound 1 µM
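Also: spheroids exposed to compounds for 7 days.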
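For viability, T/C in this document: 100% = DMSO vehicle-treated spheroids.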

Compound: C=CCn1c(=O)c2cnc(Nc3ccc(N4CCN(C)CC4)cc3)nc2n1-c1cccc(C(C)(C)O)n1 + Nc1ccc(C#CCN(C(=O)Cc2ncc(C(F)(F)F)cc2C(F)(F)F)c2ccc(F)cc2)nn1
- IC50 (second compound 0.0316 µM): 258 nM
- IC50 (second compound 0.1 µM): 219 nM
- IC50 (second compound 0.316 µM): 214 nM
- IC50 (second compound 1 µM): 259 nM
- IC50 (second compound 3.16 µM): 198 nM
- IC50 (second compound 10 µM): 236 nM
- viability, T/C (second compound 0.0316 µM, first compound 0.00316 µM): 90.9%
- viability, T/C (second compound 0.0316 µM, first compound 0.01 µM): 118%
- viability, T/C [1]: 97.2%
- viability, T/C [2]: 72.6%
- viability, T/C [3]: 47%
- viability, T/C [4]: 5.79%
- viability, T/C (second compound 0.1 µM, first compound 0.00316 µM): 103%
- viability, T/C (second compound 0.1 µM, first compound 0.01 µM): 103%
- viability, T/C [5]: 83.6%
- viability, T/C [6]: 79.9%
- viability, T/C [7]: 36%
- viability, T/C [8]: 6.74%
- viability, T/C (second compound 0.316 µM, first compound 0.00316 µM): 90.6%
- viability, T/C (second compound 0.316 µM, first compound 0.01 µM): 113%
- viability, T/C [9]: 87.8%
- viability, T/C [10]: 78%
- viability, T/C [11]: 36.1%
- viability, T/C [12]: 5.29%
- viability, T/C (second compound 1 µM, first compound 0.00316 µM): 110%
- viability, T/C (second compound 1 µM, first compound 0.01 µM): 115%
- viability, T/C [13]: 85.5%
- viability, T/C [14]: 82.4%
- viability, T/C [15]: 42.2%
- viability, T/C [16]: 5.43%
- viability, T/C (second compound 3.16 µM, first compound 0.00316 µM): 93.7%
- viability, T/C (second compound 3.16 µM, first compound 0.01 µM): 82.2%
- viability, T/C [17]: 100%
- viability, T/C [18]: 75.2%
- viability, T/C [19]: 31.8%
- viability, T/C [20]: 5.58%
- viability, T/C (second compound 10 µM, first compound 0.00316 µM): 90.7%
- viability, T/C (second compound 10 µM, first compound 0.01 µM): 105%
- viability, T/C [21]: 89.7%
- viability, T/C [22]: 80.7%
- viability, T/C [23]: 39.7%
- viability, T/C [24]: 5.43%

Compound: CCCS(=O)(=O)Nc1ccc(F)c(C(=O)c2c[nH]c3ncc(-c4ccc(Cl)cc4)cc23)c1F + Nc1ccc(C#CCN(C(=O)Cc2ncc(C(F)(F)F)cc2C(F)(F)F)c2ccc(F)cc2)nn1
- IC50 (second compound 0.0316 µM): 4470 nM
- IC50 (second compound 0.1 µM): 4540 nM
- IC50 (second compound 0.316 µM): 3460 nM
- IC50 (second compound 1 µM): 3750 nM
- IC50 (second compound 3.16 µM): 4490 nM
- IC50 (second compound 10 µM): 3680 nM
- viability, T/C [1]: 90%
- viability, T/C [2]: 75.5%
- viability, T/C [3]: 93.2%
- viability, T/C [4]: 91.3%
- viability, T/C (second compound 0.0316 µM, first compound 3.16 µM): 67.2%
- viability, T/C (second compound 0.0316 µM, first compound 10 µM): 9.94%
- viability, T/C [5]: 90.4%
- viability, T/C [6]: 55.9%
- viability, T/C [7]: 81.7%
- viability, T/C [8]: 74.7%
- viability, T/C (second compound 0.1 µM, first compound 3.16 µM): 68.2%
- viability, T/C (second compound 0.1 µM, first compound 10 µM): 10.4%
- viability, T/C [9]: 85%
- viability, T/C [10]: 85.4%
- viability, T/C [11]: 83.2%
- viability, T/C [12]: 75.8%
- viability, T/C (second compound 0.316 µM, first compound 3.16 µM): 53.2%
- viability, T/C (second compound 0.316 µM, first compound 10 µM): 11.5%
- viability, T/C [13]: 84%
- viability, T/C [14]: 76.7%
- viability, T/C [15]: 88.2%
- viability, T/C [16]: 66.3%
- viability, T/C (second compound 1 µM, first compound 3.16 µM): 58.6%
- viability, T/C (second compound 1 µM, first compound 10 µM): 13.9%
- viability, T/C [17]: 95.2%
- viability, T/C [18]: 62.6%
- viability, T/C [19]: 78.7%
- viability, T/C [20]: 84.2%
- viability, T/C (second compound 3.16 µM, first compound 3.16 µM): 66.1%
- viability, T/C (second compound 3.16 µM, first compound 10 µM): 13.2%
- viability, T/C [21]: 88.9%
- viability, T/C [22]: 64.8%
- viability, T/C [23]: 75.8%
- viability, T/C [24]: 75.9%
- viability, T/C (second compound 10 µM, first compound 3.16 µM): 55.6%
- viability, T/C (second compound 10 µM, first compound 10 µM): 13.6%
